Source: US20200329698A1, “COMPOSITIONS FOR ORGAN GRAFT PRESERVATION AND METHODS OF USE” (Nobilis Therapeutics, Inc., priority 2019, published 2020)

Columns and labels:
[1] = system: Lewis rat lung grafts extracted after cardiac death; assay: DCD lung graft stored in Dex-saturated UW after donor treatment with Nrf-2 siRNA or atipamezole; conditions: given to donor before extraction
Description: Nrf-2 siRNA or scrambled siRNAs (negative control) (QIAGEN®) were dissolved in siRNA suspension buffer and further diluted in RNase-free PBS before use. siRNA targeting rat Nrf-2 (sc-37030, SANTA CRUZ BIOTECHNOLOGY®, USA) was administered through hydrodynamic tail vein injection. Nrf-2 or scrambled siRNA ([…] in 10 ml of PBS) was rapidly injected (within 30 s) via a tail vein under anaesthesia and allow to recover for 24 h before the experiment. Atipamezole (α2-adrenergic antagonist, SIGMA-ALDRICH®, St. Louis, Mo., USA, 250 μg/kg, i.p.) was administered 10 minutes graft extraction.
In order to further investigate the mechanisms underlying the protective effects of dexmedetomidine on lung grafts, Nrf-2 siRNA and atipamezole treatment was administered donor before lung grafts extraction. The grafts were subsequently stored in Dex-saturated UW solution. TLR-4 and RIP3 immunofluorescent labelling was performed in lung grafts, with and without Nrf-2 siRNA (FIG. 9A), and with and without atipamezole treatment (FIG. 9B). […] 3-nitrotyrosine and 4-hydroxynonenal immunofluorescent labelling was performed in lung alveolar cells at CI 16 h, with and without Nrf-2 siRNA or with and without atipamezole treatment (FIGS. 9E and 9F) at CI 16 h. […] Together, these findings indicate that upregulation of the Nrf-2 and α2 adrenergic pathways are both critical to the protective effects of Dex on lung grafts. […] With respect to FIGS. 9A-9K, Lewis rat lung grafts were extracted after cardiac death and stored in 4° C. UW solution saturated with Dex (0.1 nM) or without Dex (Vehicle) for 16 hours (lung graft cold ischemia CIO 16 hr). Nrf-2 siRNA or atipamezole was given to the donor before graft extracting. Dual labelling of Rip-3 (red) and TLR-4 (green) in lung tissue after (FIG. 9A) SiRNA treatment or (FIG. 9B) atipamezole. Fluorescent intensity of (FIG. 9C) RIPK3 and (FIG. 9D) TLR-4 in lung tissue. The expression of 3-nitrotyrosine and 4-hydroxynonenal was assessed with immunofluorescent labelling after (FIG. 9E) SiRNA treatment or (FIG. 9F) Atipamezole. Fluorescent intensity of (FIG. 9G) 3-nitrotyrosine and (FIG. 9H) 4-hydroxynonenal. Nuclei were counterstained with 4′,6-diamidino-2-phenylindole (DAPI) (blue). (FIGS. 9I and 9K) Histology (haematoxylin and eosin staining) of the lung graft and injury score. (FIG. 9J) HMGB-1 in lung graft tissue, were assessed by ELISA. Scale bar: 50 μm. […] NC: naïve control, rCI: renal graft cold ischemia. HMGB, high mobility group box 1 protein; CI, cold ischaemia; NC, naïve control; TLR-4, toll-like receptor 4.

[2] = system: Fischer rats renal grafts from cardiac arrest donation; assay: DCD renal graft preservation with xenon or argon with or without dexmedetomidine, then transplantation; type: in vivo, rat; conditions: UW saturated with 70% gas, with or without Dex 0.1 nM; day 8 after transplantation
Description: Briefly, after intravenous heparinization (300 U) in 1 ml saline via the penile vein under 2% isoflurane anaesthesia, cardiac arrest was induced by cervical dislocation (schedule 1 killing). The cessation of the heart beat was observed within 3-5 minutes and donor animals were kept for 40 minutes on a 37° C. pad.
This protocol was obtained from our pilot studies and the both graft injury and a therapeutic window can be achieved. The preserving solution was saturated with 70% nitrogen, xenon or argon gas, combined with or without dexmedetomidine 0.1 nM [32]. […] Macrophage infiltration and renal fibrosis were attenuated by the treatments on day 16 after surgery (FIGS. 12A-12D).
With respect to FIGS. 10A-10D, Fischer rats renal grafts from cardiac arrest donation were stored with UW preserving solution at 4° C., saturated with nitrogen or xenon or argon gas (70% N2 or Xe or Ar and 5% CO2 balanced with O2 supplemented with Dex), machine perfused for 4 hours and stored until 24 hours. Normal kidney graft serves as naive control (NC), grafts treated with preserving solution only served as sham, and the grafts were then transplanted into Lewis recipient and finally harvested day 8 after transplantation. (FIG. 10A) Renal morphology were assessed by H and E staining (n=4-6) and (FIG. 10B) evaluated by the injury scoring system. (FIG. 10C) TUNEL staining of renal tubules in renal cortex. […]

brain = conditions: 70% argon; cited from earlier work
[3] = system: ex vivo renal grafts from brain death or cardiac arrest donors; assay: Rat hypothermic machine perfusion model; conditions: exposure of ex vivo grafts prior to engraftment
[4] = system: renal grafts from live donor; conditions: preserving solution saturated with argon; cited from earlier work
ex-vivo rat kidney = conditions: cited from earlier work
kidney = conditions: in vivo; cited from earlier work
[5] = system: isografts, weak immune-allografts and strong immuno-allografts; conditions: xenon to living donor before graft retrieval or to recipient after engraftment; cited from earlier work
[6] = ice-cold Soltran saturated with 70% Xe, 24 hrs, vs 70% N2

CCC1(c2cnc[nH]2)Cc2ccccc2C1 [atipamezole, Atipamezole]
3-nitrotyrosine expression (fluorescent intensity) ([1]; CI 16 h): significant increase
4-hydroxynonenal expression (fluorescent intensity) ([1]; CI 16 h): significant increase
HMGB-1 expression in lung graft tissue (ELISA) ([1]; CI 16 hr): significantly increased
expression of RIP3 (fluorescent intensity) ([1]; CI 16 hr): enhanced expression
lung injury scoring ([1]; CI 16 hr): significant increase
lung morphology (H&E) ([1]; CI 16 hr): deteriorated significantly
expression of TLR-4 (fluorescent intensity) ([1]; CI 16 hr, p<0.01): enhanced expression

[Ar] [argon]
renal architecture during prolonged cold preservation (H&E injury score, TUNEL) [2]: preserved the renal architrave
neuroprotection (brain): neuro-protective
organ graft injury, histologically and functionally [3]: prevent organ graft injury
preservation of renal grafts against hypothermic-ischemic injury [4]: superior in preserving renal grafts

[Xe] [xenon]
delayed graft function (ex-vivo rat kidney; after engraftment): reduced
renal inflammation (ex-vivo rat kidney; after engraftment): reduced
fibrosis (ex-vivo rat kidney; day 8 after surgery): significantly reduced
macrophage infiltration (ex-vivo rat kidney; day 8 after surgery): significantly reduced
expression of Bcl-2 (ex-vivo rat kidney; [6]): enhanced expression
expression of HSP-70 (ex-vivo rat kidney; [6]): enhanced expression
tubular cell death (ex-vivo rat kidney; twenty-four hrs after engraftment): significantly decreased
morphological structure of the ex-vivo rat kidney (ex-vivo rat kidney; xenon-containing Soltran solution): well preserved
kidney warm ischemic injury (kidney): protect against kidney warm ischemic injury
renal architecture during prolonged cold preservation (H&E injury score, TUNEL) [2]: preserved the renal architrave
organ graft injury, histologically and functionally [3]: prevent organ graft injury
early graft injury [5]: protected against early graft injury
graft survival [5]: prolonged graft survival
